For data set [1], the target named is T1, Androgen receptor (Homo sapiens, UniProt P10275).
T1 sequence (P10275 whole entry): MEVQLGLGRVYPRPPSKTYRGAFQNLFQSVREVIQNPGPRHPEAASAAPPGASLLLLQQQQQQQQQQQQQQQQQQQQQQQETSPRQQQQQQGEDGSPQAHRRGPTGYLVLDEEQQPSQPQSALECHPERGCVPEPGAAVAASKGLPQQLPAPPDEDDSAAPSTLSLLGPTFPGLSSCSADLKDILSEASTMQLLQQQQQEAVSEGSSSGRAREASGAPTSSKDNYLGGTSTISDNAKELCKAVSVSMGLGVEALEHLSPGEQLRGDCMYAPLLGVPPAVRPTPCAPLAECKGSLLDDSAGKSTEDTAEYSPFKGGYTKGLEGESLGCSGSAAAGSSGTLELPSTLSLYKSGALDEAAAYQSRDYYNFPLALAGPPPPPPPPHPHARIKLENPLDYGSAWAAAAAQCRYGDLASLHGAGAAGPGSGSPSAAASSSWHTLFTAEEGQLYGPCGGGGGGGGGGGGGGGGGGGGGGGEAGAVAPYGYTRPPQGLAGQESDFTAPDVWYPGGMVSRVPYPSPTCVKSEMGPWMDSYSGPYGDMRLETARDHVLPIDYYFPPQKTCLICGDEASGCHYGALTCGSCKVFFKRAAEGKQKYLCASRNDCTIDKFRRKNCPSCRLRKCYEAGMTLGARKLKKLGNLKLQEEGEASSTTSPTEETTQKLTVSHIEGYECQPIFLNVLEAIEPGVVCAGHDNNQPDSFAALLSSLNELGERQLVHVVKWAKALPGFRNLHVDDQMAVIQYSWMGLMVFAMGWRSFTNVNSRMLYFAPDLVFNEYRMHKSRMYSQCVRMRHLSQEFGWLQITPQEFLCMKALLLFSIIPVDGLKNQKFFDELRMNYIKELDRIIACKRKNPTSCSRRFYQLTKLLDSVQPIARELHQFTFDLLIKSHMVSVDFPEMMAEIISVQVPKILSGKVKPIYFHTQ
The experiment in a line: biochemical.
Description: Displacement of [3H]DHT from human Androgen receptor in human MDA-MB-453 cells

For data set [2], the target named is T1, Androgen receptor.
Description: Agonist activity at human androgen receptor in CV1 cells by transcriptional activation assay
Data set [3] concerns the target T1, Androgen receptor. This is another data set of the same source.
Description: Antagonist activity at human androgen receptor in CV1 cells by transcriptional activation assay
Data set [4] can be described thus: Metabolic stability in rat liver microsome at 5 uM. The class given is ADME. The following applies: liver microsomes.
For data set [5], the system named is Rattus norvegicus. The experiment in a line: Effect on Levator ani muscle weight maintenance in orchidectomized Sprague-Dawley rat at 10 mg/kg, po. Set-up: dose 10 mg/kg. The class given is functional, organism-based.
Data set [6] relates to Rattus norvegicus. Briefly: Effect on Levator ani muscle weight maintenance in orchidectomized Sprague-Dawley rat at 3 mg/kg, po. The class given is functional, organism-based. Set-up: dose 3 mg/kg.

Active and inactive are the calls of the source. The rule behind the calls is not given here.

Broadly, the Ki is a measure of affinity in units of concentration, obtained from inhibition or displacement. Read a high Ki as weaker binding. As a reminder, the EC50 is the concentration at which the effect is half-maximal. The low end stands for greater potency, the high end for weaker potency. As a reminder, the IC50 is the point on the concentration scale where inhibition reaches its midpoint. The low end stands for higher potency, the high end for lower potency. The half-life is the time in which the quantity being followed falls by half. The low end stands for fast loss, the high end for slow loss.

As to `COC[C@@H]1COc2cc3[nH]c(=O)cc(C(F)(F)F)c3cc2N1CC(F)(F)F`, the Ki at Androgen receptor [1] came out at 0.0094 µM. On Androgen receptor [2], this compound yielded an EC50 of 0.002 µM.
As for `O=c1cc(C(F)(F)F)c2cc3c(cc2[nH]1)OC[C@H](CO)N3CC(F)(F)F`, the Ki on Androgen receptor [1] was 0.022 µM. The compound further displayed an IC50 against Androgen receptor [3] of 0.165 µM. The compound also displayed an EC50 at Androgen receptor [2] of 0.0066 µM.
As to `O=c1cc(C(F)(F)F)c2cc3c(cc2[nH]1)OC[C@H](CF)N3CC(F)(F)F`, on Androgen receptor [1], the Ki turned out to be 0.0026 µM. The compound also displayed an EC50 on Androgen receptor [2] of 0.0038 µM. Besides, the half-life at 5 µM in data set [4] turned out to be 0.567 h. The result in the data set with Rattus norvegicus [5] was Active.
The compound `O=c1cc(C(F)(F)F)c2cc3c(cc2[nH]1)OC[C@@H](c1ccccc1)N3CC(F)(F)F` showed a Ki at Androgen receptor [1] of 0.0013 µM. At Androgen receptor [2], a half-maximal response (EC50) required 0.0053 µM.
Consider `O=c1cc(C(F)(F)F)c2cc3c(cc2[nH]1)OC[C@H](c1ccccc1)N3CC(F)(F)F`, for which, on Androgen receptor [1], the inhibition constant (Ki) came to 0.15 µM. The 50% inhibitory concentration (IC50) against Androgen receptor [3] came out at 0.34 µM.
Compound `Cc1cccc([C@@H]2COc3cc4[nH]c(=O)cc(C(F)(F)F)c4cc3N2CC(F)(F)F)c1` had an inhibition constant (Ki) on Androgen receptor [1] of 0.0011 µM. The same compound yielded an EC50 on Androgen receptor [2] of 0.019 µM.
Regarding `O=c1cc(C(F)(F)F)c2cc3c(cc2[nH]1)OC[C@@H](C(F)(F)F)N3CC(F)(F)F`, the affinity at Androgen receptor [1] corresponds to a Ki of 0.281 µM. At Androgen receptor [3], this compound gave an IC50 of 0.034 µM. This compound also came in with an EC50 at Androgen receptor [2] of 0.042 µM.
Compound `O=c1cc(C(F)(F)F)c2cc3c(cc2[nH]1)OC[C@H](C(F)(F)F)N3CC(F)(F)F` displayed a Ki on Androgen receptor [1] of 0.0059 µM. Also, in the data set on Rattus norvegicus [6], the result was Active. In addition, the concentration for a half-maximal effect (EC50) at Androgen receptor [2] amounted to 0.002 µM. The same compound displayed a half-life at 5 µM in data set [4] of 1.67 h.
In turn, `O=c1cc(C(F)(F)F)c2cc3c(cc2[nH]1)OC[C@@H](CC(F)(F)F)N3CC(F)(F)F` registered a Ki on Androgen receptor [1] of 0.018 µM. On Androgen receptor [2], this compound came in with an EC50 of 0.023 µM.
`CCCOCC1COc2cc3[nH]c(=O)cc(C(F)(F)F)c3cc2N1CC(F)(F)F` (racemic) had a 50% effective concentration (EC50) on Androgen receptor [2] of 0.0042 µM.
For the compound `O=c1cc(C(F)(F)F)c2cc3c(cc2[nH]1)OCC(C(F)F)N3CC(F)(F)F` (racemic), on Androgen receptor [1], the inhibition constant Ki came out at 0.0066 µM. The compound also showed a half-maximal effective concentration (EC50) at Androgen receptor [2] of 0.0013 µM.
The like results for `N#CCC1COc2cc3[nH]c(=O)cc(C(F)(F)F)c3cc2N1CC(F)(F)F` (racemic) were, in that order, 0.018 µM and 0.03 µM.
`Cc1ccc([C@@H]2COc3cc4[nH]c(=O)cc(C(F)(F)F)c4cc3N2CC(F)(F)F)cc1` displayed an EC50 on Androgen receptor [2] of 0.036 µM.
`CSCC1COc2cc3[nH]c(=O)cc(C(F)(F)F)c3cc2N1CC(F)(F)F` (racemic) gave an IC50 against Androgen receptor [3] of 0.025 µM. This compound also came in with an EC50 at Androgen receptor [2] of 0.028 µM.
With `O=c1cc(C(F)(F)F)c2cc3c(cc2[nH]1)OC[C@@H](CF)N3CC(F)(F)F`, the Ki on Androgen receptor [1] stood at 0.032 µM. On Androgen receptor [3], this compound showed an IC50 of 0.199 µM. This compound also had an EC50 at Androgen receptor [2] of 0.035 µM.
For the compound `O=c1cc(C(F)(F)F)c2cc3c(cc2[nH]1)OC[C@@H](Cc1ccccc1)N3CC(F)(F)F`, the IC50 at Androgen receptor [3] stood at 0.051 µM.
`Cc1cccc([C@H]2COc3cc4[nH]c(=O)cc(C(F)(F)F)c4cc3N2CC(F)(F)F)c1` came in with a Ki at Androgen receptor [1] of 0.18 µM. Moreover, on Androgen receptor [3], the IC50 was 0.574 µM.
As to `CCOCC1COc2cc3[nH]c(=O)cc(C(F)(F)F)c3cc2N1CC(F)(F)F` (racemic), it took 0.0032 µM to reach a half-maximal effect at Androgen receptor [2] (EC50).
At Androgen receptor [1], `O=c1cc(C(F)(F)F)c2cc3c(cc2[nH]1)OCC(C(F)(F)F)N3CC(F)(F)F` (racemic) displayed a Ki of 0.0083 µM. Moreover, a half-maximal effect at Androgen receptor [2] (EC50) was put at 0.0059 µM.
Take `COC[C@H]1COc2cc3[nH]c(=O)cc(C(F)(F)F)c3cc2N1CC(F)(F)F`: at Androgen receptor [1], the Ki came to 0.109 µM. The compound also had a half-maximal inhibitory concentration (IC50) at Androgen receptor [3] of 0.017 µM. For the same compound, a half-maximal effect on Androgen receptor [2] (EC50) was put at 0.077 µM.
As to `Cc1ccc([C@H]2COc3cc4[nH]c(=O)cc(C(F)(F)F)c4cc3N2CC(F)(F)F)cc1`, inhibition on Androgen receptor [3] was half-maximal at 0.044 µM (IC50).
At Androgen receptor [1], `CSCC[C@@H]1COc2cc3[nH]c(=O)cc(C(F)(F)F)c3cc2N1CC(F)(F)F` displayed a Ki of 0.0024 µM. The concentration for a half-maximal effect (EC50) at Androgen receptor [2] worked out at 0.023 µM.
`O=c1cc(C(F)(F)F)c2cc3c(cc2[nH]1)OC[C@@H](CO)N3CC(F)(F)F`: the Ki at Androgen receptor [1] was 0.015 µM. At Androgen receptor [3], this compound displayed an IC50 of 0.06 µM. The EC50 on Androgen receptor [2] turned out to be 0.011 µM.

Source of the values: ChEMBL document CHEMBL1145608, “Selective androgen receptor modulators based on a series of 7H-[1,4]oxazino[3,2-g]quinolin-7-ones with improved in vivo activity” (Bioorg Med Chem Lett, 2008).
